From patent publication US9579319B2 (Redx Pharma PLC, priority 2013, dated 2017)

molecular target: Hedgehog signalling pathway; assay: Gli-reporter NIH3T3 luciferase assay (Hedgehog pathway inhibition); type: cell-based; conditions: Gli-reporter NIH-3T3 cells, recombinant mouse sonic hedgehog, 24 hours, luminescence; read-out: Gli luc IC50
Protocol: In vitro biological evaluation of compounds of the invention was carried out using the procedure detailed below. The procedure provides activity data for the compounds of the invention against the Hedgehog signalling pathway. The activity is represented as IC50 values in Table 12 below.
The Gli-reporter NIH3T3 cell line (BPS Biosciences) was grown according to the suppliers recommendations. Briefly, cells were maintained in growth medium (DMEM supplemented with 10% calf serum, 1% Penicillin/Streptomycin, and 500 µg/mL of Geneticin) and grown at 37° C., 5% CO2. In order to passage cells they were first rinsed with phosphate buffered saline before the addition of 0.05% Trypsin/EDTA. Fresh growth media was added and the cells were transferred to a centrifuge tube, spun and resuspended at an appropriate cell density.
Gli-reporter NIH-3T3 cells were seeded at 20,000 cells/well into 96 well, poly-D-lysine coated white clear bottomed full area TC plates in growth media (without geneticin). Three wells were left with just media as cell free controls. Cells were then incubated for 24 hours at 37° C. in a 5% CO2.
Serial dilutions of the test compounds were prepared in 100% DMSO. 10 μl of compound or DMSO from each well was pipetted into a sterile, 0.5 ml deep well conical bottomed 96 well plate (intermediate plate). 190 μl of warmed assay media (Opti-MEM supplemented with 0.5% calf serum, 1% non-essential amino acids, 1 mM sodium pyruvate, 10 mM HEPES, 1% penicillin/Streptomycin) was then added to each well and mixed five times at 180 μl by electronic pipette to ensure homogeneity of the compound solution. This 1:20 dilution gives a top concentration of 50 μM in 5% DMSO, 95% assay media. 10 μl was pipetted from each well of the intermediate plate into a second deep well sterile plate. 490 μl of warm assay media was then added to each well and mixed five times at 300 μl. This gives a final top concentration of 1 μM in 0.1% DMSO.
After the 24 hour incubation, media was carefully removed by pipette and replaced with 45 μl of compound dilutions in triplicate. This was incubated for one hour at 37° C. in a 5% CO2. After an hour, 5 μl 10 μg/mL recombinant mouse sonic hedgehog (R&D Systems) was added to each well and the plates were incubated for a further 24 hours at 37° C., 5% CO2.
After 24 hours, plates were removed from the incubator and left to acclimatise to room temperature for 20 minutes. 50 μl of OneGLO assay reagent (Promega) was then added to each well and the plates gently shaken for a further 30 minutes. Plates were then read for luminescence on the EnVision plate reader (PerkinElmer).

Row | IC50 [nM] | Compound
1 | > 200 | 1-[4,5-dimethyl-6-(2-methylpyrazol-yl)pyridazin-3-yl]-N-methyl-N-[[2-(trifluoromethoxy)phenyl]methyl]piperidin-4-amine [Example 89]

same assay, conditions: NIH3T3; Gli-reporter NIH-3T3 cells, recombinant mouse sonic hedgehog, 24 hours, luminescence; read-out: Category (Hedgehog pathway inhibition activity, IC50)

Row | IC50 [nM] | Compound
2 | < 10 | Cn1nccc1-c1nnc(N2CCC(NCc3ccc(Cl)nc3C(F)(F)F)CC2)c2ccccc12 [Example 44, N-[[6-chloro-2-(trifluoromethyl)-3-pyridyl]methyl]-1-[4-(2-methylpyrazol-3-yl)phthalazin-1-yl]piperidin-4-amine]
3 | 10 to 200 | Cn1nccc1-c1nnc(N2CCC(NCc3cccc(C(F)(F)F)c3)CC2)c2ccccc12 [Example 39, 1-[4-(2-methylpyrazol-3-yl)phthalazin-1-yl]-N-[[3-(trifluoromethyl)phenyl]methyl]piperidin-4-amine]
4 | < 10 | COc1cccc(NC(=O)NC2CCN(c3nnc(-c4ccnn4C)c4ccccc34)CC2)c1 [Example 24, 1-(3-methoxyphenyl)-3-[1-[4-(2-methylpyrazol-3-yl)phthalazin-1-yl]-4-piperidyl]urea]
5 | < 10 | Cn1nccc1-c1nnc(N2CCC(NC(=O)Nc3ccccc3C(F)(F)F)CC2)c2ccccc12 [Example 21, 1-[1-[4-(2-methylpyrazol-3-yl)phthalazin-1-yl]-4-piperidyl]-3-[2-(trifluoromethyl)phenyl]urea]
6 | < 10 | CN(Cc1ccc(F)cc1C(F)(F)F)C1CCN(c2ccc(-c3ccnn3C)nn2)CC1 [Example 42, N-[[4-fluoro-2-(trifluoromethyl)phenyl]methyl]-N-methyl-1-[6-(2-methylpyrazol-3-yl)pyridazin-3-yl]piperidin-4-amine]
7 | 10 to 200 | Cn1nccc1-c1nnc(N2CCC(NCc3ccccc3Cl)CC2)c2ccccc12 [Example 38, N-[(2-chlorophenyl)methyl]-1-[4-(2-methylpyrazol-3-yl)phthalazin-1-yl]piperidin-4-amine]
8 | 10 to 200 | Cc1c(-c2ccnn2C)nnc(N2CCC(N(C)Cc3ccc(F)cc3C(F)(F)F)CC2)c1C [Example 41, 1-[4,5-dimethyl-6-(2-methylpyrazol-3-yl)pyridazin-3-yl]-N-[[4-fluoro-2-(trifluoromethyl)phenyl]methyl]-N-methyl-piperidin-4-amine]
9 | < 10 | Cn1nccc1-c1nnc(N2CCC(Nc3ccc(F)cc3C(F)(F)F)CC2)c2ccccc12 [Example 53, N-[4-fluoro-2-(trifluoromethyl)phenyl]-1-[4-(2-methylpyrazol-3-yl)phthalazin-1-yl]piperidin-4-amine]
10 | 10 to 200 | Cn1nccc1-c1nnc(N2CCC(N(Cc3ccc(F)cc3C(F)(F)F)C(=O)C(F)(F)F)CC2)c2ccccc12 [Example 56, 2,2,2-trifluoro-N-[[4-fluoro-2-(trifluoromethyl)phenyl]methyl]-N-[1-[4-(2-methylpyrazol-3-yl)phthalazin-1-yl]-4-piperidyl]acetamide]

same assay, conditions: NIH3T3; Gli-reporter NIH-3T3 cells, recombinant mouse sonic hedgehog, 24 hours, luminescence; read-out: Gli Luc nM (IC50)

Row | IC50 [nM] | Compound
11 | 0.04 | CN(Cc1ccc(F)cc1C(F)(F)F)C1CCN(c2ccc(-c3ccnn3C)nn2)CC1 [Example 42, N-[[4-fluoro-2-(trifluoromethyl)phenyl]methyl]-N-methyl-1-[6-(2-methylpyrazol-3-yl)pyridazin-3-yl]piperidin-4-amine]

same assay, conditions: NIH3T3; Gli-reporter NIH-3T3 cells, recombinant mouse sonic hedgehog, 24 hours, luminescence; read-out: Gli luc IC50

Row | Compound | IC50 [nM]
12 | CN(C1CCN(c2nnc(-c3ccnn3C)c3ccncc23)CC1)S(=O)(=O)c1ccc(F)cc1C(F)(F)F [Example 103, 4-fluoro-N-methyl-N-[1-[1-(2-methylpyrazol-3-yl)pyrido[3,4-d]pyridazin-4-yl]-4-piperidyl]-2-(trifluoromethyl)benzenesulfonamide] | 10 to 200
13 | Cc1c(-c2ccnn2C)nnc(N2CCC(N(C)Cc3ccnnc3)CC2)c1C [Example 90, 1-[4,5-dimethyl-6-(2-methylpyrazol-3-yl)pyridazin-3-yl]-N-methyl-N-(pyridazin-4-ylmethyl)piperidin-4-amine] | > 200

Results, then the compound that gave them:

Row | IC50 [nM] | Compound
14 | > 200 | Cc1c(-c2ccnn2C)nnc(N2CCC(N(C)C(=O)Nc3ccc(F)cc3F)CC2)c1C [Example 127, 3-(2,4-difluorophenyl)-1-[1-[4,5-dimethyl-6-(2-methylpyrazol-3-yl)pyridazin-3-yl]-4-piperidyl]-1-methyl-urea]
15 | > 200 | Cn1nccc1-c1nnc(N2CCC(NCc3ccc(F)c(C#N)c3)CC2)c2c1CCC2 [Example 128, 2-fluoro-5-[[[1-[1-(2-methylpyrazol-3-yl)-6,7-dihydro-5H-cyclopenta[d]pyridazin-4-yl]-4-piperidyl]amino]methyl]benzonitrile]
16 | 10 to 200 | CN(C(=O)NC(C)(C)C)C1CCN(c2nnc(-c3ccnn3C)c3c2CCC3)CC1 [Example 133, 3-tert-butyl-1-methyl-1-[1-[1-(2-methylpyrazol-3-yl)-6,7-dihydro-5H-cyclopenta[d]pyridazin-4-yl]-4-piperidyl]urea]
17 | 10 to 200 | Cn1nccc1-c1nnc(N2CCC(NC(=O)NC(C)(C)C)CC2)c2c1CCC2 [Example 161, 1-tert-butyl-3-[1-[1-(2-methylpyrazol-3-yl)-6,7-dihydro-5H-cyclopenta[d]pyridazin-4-yl]-4-piperidyl]urea]
18 | 10 to 200 | Cc1c(-c2ccncc2)nnc(N2CCC(NS(=O)(=O)c3ccc(F)cc3C(F)(F)F)CC2)c1C [Example 119, N-[1-[4,5-dimethyl-6-(4-pyridyl)pyridazin-3-yl]-4-piperidyl]-4-fluoro-2-(trifluoromethyl)benzenesulfonamide]
19 | > 200 | Cc1cc(-c2nnc(N3CCC(NS(=O)(=O)c4ccc(F)cc4C(F)(F)F)CC3)c(C)c2C)ccn1 [Example 118, N-[1-[4,5-dimethyl-6-(2-methyl-4-pyridyl)pyridazin-3-yl]-4-piperidyl]-4-fluoro-2-(trifluoromethyl)benzenesulfonamide]
20 | > 200 | Cn1nccc1-c1nnc(N2CCC(NCc3cccc(C#N)c3)CC2)c2c1CCC2 [Example 149, 3-[[[1-[1-(2-methylpyrazol-3-yl)-6,7-dihydro-5H-cyclopenta[d]pyridazin-4-yl]-4-piperidyl]amino]methyl]benzonitrile]
21 | < 10 | Cn1nccc1-c1nnc(N2CCC(NC(=O)Nc3ccc(OC(F)(F)F)cc3)CC2)c2ccccc12 [Example 167, 1-[1-[4-(2-methylpyrazol-3-yl)phthalazin-1-yl]-4-piperidyl]-3-[4-(trifluoromethoxy)phenyl]urea]
22 | < 10 | Cn1nccc1-c1nnc(N2CCC(NS(=O)(=O)c3ccc(F)cc3C(F)(F)F)CC2)c2c1CCC2 [Example 159, 4-fluoro-N-[1-[1-(2-methylpyrazol-3-yl)-6,7-dihydro-5H-cyclopenta[d]pyridazin-4-yl]-4-piperidyl]-2-(trifluoromethyl)benzenesulfonamide]
23 | > 200 | Cc1c(-c2ccnn2C)nnc(N2CCC(N(C)C(=O)Nc3ccc(F)cc3)CC2)c1C [Example 113, 1-[1-[4,5-dimethyl-6-(2-methylpyrazol-3-yl)pyridazin-3-yl]-4-piperidyl]-3-(4-fluorophenyl)-1-methyl-urea]
24 | 10 to 200 | Cn1nccc1-c1nnc(N2CCC(CNCc3ccc(F)cc3C(F)(F)F)C2)c2ccccc12 (stereo not shown) [Example 140, 1-[4-fluoro-2-(trifluoromethyl)phenyl]-N-[[1-[4-(2-methylpyrazol-3-yl)phthalazin-1-yl]pyrrolidin-3-yl]methyl]methanamine]
25 | 10 to 200 | COc1ccc(-c2nnc(N3CCC(NCc4ccc(F)cc4C(F)(F)F)CC3)c(C)c2C)cn1 [Example 120, N-[[4-fluoro-2-(trifluoromethyl)phenyl]methyl]-1-[6-(6-methoxy-3-pyridyl)-4,5-dimethyl-pyridazin-3-yl]piperidin-4-amine]
26 | 10 to 200 | COc1ccc(-c2nnc(N3CCC(NS(=O)(=O)c4ccc(F)cc4C(F)(F)F)CC3)c(C)c2C)cn1 [Example 117, 4-fluoro-N-[1-[6-(6-methoxy-3-pyridyl)-4,5-dimethyl-pyridazin-3-yl]-4-piperidyl]-2-(trifluoromethyl)benzenesulfonamide]
27 | 10 to 200 | CN(C1CCN(c2nnc(-c3ccnn3C)c3c2CCC3)CC1)S(=O)(=O)c1ccc(F)cc1C(F)(F)F [Example 124, 4-fluoro-N-methyl-N-[1-[1-(2-methylpyrazol-3-yl)-6,7-dihydro-5H-cyclopenta[d]pyridazin-4-yl]-4-piperidyl]-2-(trifluoromethyl)benzenesulfonamide]
28 | 10 to 200 | CN(Cc1cccc(C#N)c1)C1CCN(c2nnc(-c3ccnn3C)c3c2CCC3)CC1 [Example 131, 3-[[methyl-[1-[1-(2-methylpyrazol-3-yl)-6,7-dihydro-5H-cyclopenta[d]pyridazin-4-yl]-4-piperidyl]amino]methyl]benzonitrile]
